Measured values reported in article PMC2263054, “Functional evolution of the vitamin D and pregnane X receptors” (BMC Evolutionary Biology, 2007).

Key:
[1] = system: 6β- and 12α-hydroxylation of testosterone; assay: testosterone hydroxylation (HPLC) in African clawed frog primary hepatocytes; assay type: cell-based, Xenopus laevis; details: relative to vehicle control
Experimental: Xenopus laevis primary hepatocytes were cultured by a protocol adapted from a published report. Frogs are sacrificed with MS-222, rinsed with 70% ethanol, and the liver lobes perfused via the heart, initially with 375 mL Barth (88 mM NaCl, 1 mM K2SO4, and 10 mM HEPES-NaOH, pH 7.4) containing 0.82 mM MgCl2 and 0.1 mg/mL heparin, and then with 25 mL Barth containing 2.22 mM Ca(NO3)2, 2.74 mM CaCl2, and 200 U/mL type I collagenase (Worthington Chemicals, Lakewood, NJ). Livers are minced to fine pieces in 12.5 mL Barth-collagenase solution and then incubated for 10 min at room temperature, periodically disaggregating the liver pieces with a Pasteur pipette. The liver cells are then placed on a shaking incubator for 5 min at room temperature, followed by another 10 min of periodic pipetting to complete disaggregation. Cells are then filtered through a 130 μm Nitex nylon mesh (Fisher Scientific), following by spinning at 500 g for 5 min at 4°C. The supernatant is then aspirated and diluted to 50 mL with Barth plus MgCl2 and then allowed to settle while cooled in ice for 30 min. The supernatant is removed, and the cellular pellet is resuspended and subjected to one more round of nylon mesh filtration, dilution in Barth plus MgCl2, and settling while cooled in ice. The supernatant is removed and the remaining cells are washed once with Barth plus MgCl2 and then centrifuged at 500 g for 5 min at 4°C. The cells are then resuspended in 0.6 × Coon's Modified Ham's F-12 medium (Invitrogen) supplemented with 0.1 × Barth (88 mM NaCl, 1 mM K2SO4, 10 mM HEPES), 200 U/mL penicillin G, 100 μg/mL streptomycin sulfate, 2 mM glutamine, 0.2% glucose, and 10 μg/mL bovine insulin (Calbiochem), with the final pH adjusted to 7.5. […] Cells are cultured at 20°C in ambient atmosphere.
Testosterone metabolites were identified and quantitated by HPLC. […] The supernatant was then injected into the HPLC.

[2] = system: testosterone 6β-hydroxylation; assay: testosterone hydroxylation (HPLC) in sea lamprey primary hepatocytes; assay type: cell-based; details: concentration ranges per compound
Experimental: (§1) 100 μL of sample, calibration standard, or quality material standard were pipetted into separate microcentrifuge tubes and mixed with 100 μL of methanol. Samples were vortexed and centrifuged at 13,000 rpm for 4 min. The supernatant was then injected into the HPLC.
(§2) The flow rate was 1.2 mL/min and total run time was 25 min.

[3] = system: testosterone 6β-hydroxylation activity (CYP3A-like activity); assay: in vitro
Experimental: (§3) The cells are cultured at 26°C in ambient atmosphere.
as §1, §2

EROD activity = assay: EROD assay in sea lamprey primary hepatocytes; details: 24–48 hr exposure
Sea lamprey VDR = target: T1, Sea lamprey VDR (Petromyzon marinus, UniProt Q7ZZY9); assay type: cell-based; details: screening for activators, at least three concentrations of each drug
T1 sequence (Q7ZZY9 92-406): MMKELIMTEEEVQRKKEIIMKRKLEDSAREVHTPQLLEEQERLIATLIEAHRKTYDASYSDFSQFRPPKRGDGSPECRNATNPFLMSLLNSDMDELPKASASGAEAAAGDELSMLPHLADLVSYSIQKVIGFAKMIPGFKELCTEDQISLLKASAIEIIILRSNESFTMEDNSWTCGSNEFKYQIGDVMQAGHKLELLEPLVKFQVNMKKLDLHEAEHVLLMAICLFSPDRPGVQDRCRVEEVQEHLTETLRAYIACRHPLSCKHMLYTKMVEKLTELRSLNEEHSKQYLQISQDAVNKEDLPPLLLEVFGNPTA

Xenopus laevis VDR = target: T2, Xenopus laevis VDR (Xenopus laevis, UniProt O13124); assay: luciferase reporter transactivation assay in HepG2-NTCP cells, GAL4/xlVDR LBD chimera with tk-UAS-Luc; assay type: cell-based; details: screening for activators, at least three concentrations of each drug
T2 sequence (O13124 90-422): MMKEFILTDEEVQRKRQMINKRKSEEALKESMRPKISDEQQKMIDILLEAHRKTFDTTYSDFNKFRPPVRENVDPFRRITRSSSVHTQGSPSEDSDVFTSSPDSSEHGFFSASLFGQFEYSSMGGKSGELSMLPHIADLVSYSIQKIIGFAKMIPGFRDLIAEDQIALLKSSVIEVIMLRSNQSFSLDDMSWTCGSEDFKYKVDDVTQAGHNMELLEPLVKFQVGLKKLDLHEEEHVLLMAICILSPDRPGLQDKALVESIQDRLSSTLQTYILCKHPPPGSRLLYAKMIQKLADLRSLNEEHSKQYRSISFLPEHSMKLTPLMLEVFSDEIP

Zebrafish VDR = target: T3, Zebrafish VDR (Danio rerio, UniProt Q9PTN2); assay: luciferase reporter transactivation assay in HepG2-NTCP cells, GAL4/zfVDR LBD chimera with tk-UAS-Luc; assay type: cell-based; details: screening for activators, at least three concentrations of each drug
T3 sequence (Q9PTN2 121-453): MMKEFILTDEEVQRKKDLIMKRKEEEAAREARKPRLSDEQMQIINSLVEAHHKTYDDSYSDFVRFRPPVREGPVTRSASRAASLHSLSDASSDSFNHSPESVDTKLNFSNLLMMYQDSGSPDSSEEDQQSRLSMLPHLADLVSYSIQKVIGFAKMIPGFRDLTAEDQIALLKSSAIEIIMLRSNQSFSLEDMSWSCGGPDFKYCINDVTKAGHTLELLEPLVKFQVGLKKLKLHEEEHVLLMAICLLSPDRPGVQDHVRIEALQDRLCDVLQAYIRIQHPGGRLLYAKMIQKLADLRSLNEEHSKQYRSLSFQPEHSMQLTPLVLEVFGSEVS

[4] = system: MDR1 (tentatively classified as ABCB5 in zebrafish); assay: zebrafish in vivo liver transcription, semi-quantitative RT-PCR: MDR1; details: zebrafish, 15 mg/kg intraperitoneally, single dose, 48 hr
Experimental: (§4) Adult zebrafish were purchased from a commercial fish supplier and acclimatized for at least two-weeks in 20 L tanks with flow-through freshwater at 22°C. A single dose of 15 mg/kg of 5α-cyprinol, 5β-cyprinol 27-sulfate, 5α-scymnol or 5β-scymnol-27 sulfate, dissolved in saline, was injected intraperitoneally. A control group was injected with saline. After 48 hr, the animals were decapitated and livers of three fish (n = 5 each group) were removed, pooled and weighed, totalizing 15 fish per group. Fish were not fed throughout the experimental period. […].
(§5) To study the transcription of CYP3C1, ABCB5, PXR, GAPDH and β-actin genes in zebrafish, initial fragments of these genes were identified (Genbank: AW202769, Genbank: BQ284593, Genbank: AAM22215, Genbank: BC083506, Genbank: AF057040, respectively). The PCR primers for CYP3C1 were designed using MacVector Software and primers for MDR1 were designed using Primer 3 Software (Whitehead Institute for Biomedical Research; [75]). Primer pairs for amplifying CYP3C1 fragment were 5'-[…]-3' (sense) and 5'-[…]-3' (antisense) and for amplifying ABCB5 were 5'-[…]-3' (sense) and 5'-[…]-3' (antisense). The PCR primers for PXR were 5'-[…]-3' (sense) and 5'-[…]-3' (antisense), for amplifying GAPDH were 5'-[…]-3' (sense) and 5' […] 3' (antisense) and for β-actin were 5'-[…]-3' (sense) and 5'-[…]-3' (antisense). RNA was isolated using Trizol (Invitrogen) according to manufacturer's instructions. Purity and concentration of RNA of each sample were verified at 260 nm. The RNA integrity was checked by non-denaturing gel electrophoresis using 1 μg of total RNA in each sample.
(§6) Two micrograms of total RNA were reversed transcribed using Ominiscript RT Kit (Qiagen, Valencia, CA, USA). cDNA concentration was checked at 260 nm, and the amount adjusted to 1 μg to perform semi-quantitative RT-PCR. The expected size of the PXR, Cyp3C1, abcb5, GAPDH and β-actin fragments were 577, 477, 218, 234 and 550 bp, respectively. Biotools DNA polymerase (Biotools B&M Labs, S.A., Madrid, Spain) kit was used for the PCR reaction using a thermocycler Personal Mastercycler (Eppendörf) with the following PCR program: 5 cycles of 94°C for 5 s, 72°C for 35 s; 5 cycles of 94°C for 5 s, 70°C for 10 s, 72°C for 35 s; and 23, 24, 35, 15 and 24 cycles (PXR, Cyp3C1, abcb5, GAPDH and β-actin, respectively) of 94°C for 5 s, 61, 54, 48, 49 and 61°C for 10 s (PXR, Cyp3C1, abcb5, GAPDH and β-actin, respectively), and 72°C for 35 s. The PXR, CYP3C1, ABCB5 and GAPDH transcript levels were quantified using Gel-Quant™ (Multiplexed Biotechologies) and β-actin was used to normalize the data. The Shapiro-Wilk W test was used to evaluate normality. When data were parametric the analysis was performed using Student t test; otherwise Mann Whitney U test was applied. […]

β-actin = assay: zebrafish in vivo liver transcription, semi-quantitative RT-PCR: β-actin; details: zebrafish, 15 mg/kg intraperitoneally, single dose, 48 hr
Experimental: as §4, §5, §6

zebrafish PXR = details: ref [29],[53]; cited from earlier work
[5] = system: glyceraldehyde 3-phosphate dehydrogenase (GAPDH); assay: zebrafish in vivo liver transcription, semi-quantitative RT-PCR: GAPDH; details: 15 mg/kg intraperitoneally, single dose, 48 hr
Experimental: Adult zebrafish were purchased from a commercial fish supplier and acclimatized for at least two-weeks in 20 L tanks with flow-through freshwater at 22°C. A single dose of 15 mg/kg of 5α-cyprinol, 5β-cyprinol 27-sulfate, 5α-scymnol or 5β-scymnol-27 sulfate, dissolved in saline, was injected intraperitoneally. A control group was injected with saline. After 48 hr, the animals were decapitated and livers of three fish (n = 5 each group) were removed, pooled and weighed, totalizing 15 fish per group. Fish were not fed throughout the experimental period.
as §5, with “The PCR primers for CYP3C1 were designed using MacVector Software and primers for MDR1 were designed using Primer 3 Software (Whitehead Institute for Biomedical Research; [75]).” left out, “Purity and concentration of RNA of each sample were verified at 260 nm.” left out
The PXR, CYP3C1, ABCB5 and GAPDH transcript levels were quantified using Gel-Quant™ (Multiplexed Biotechologies) and β-actin was used to normalize the data. The Shapiro-Wilk W test was used to evaluate normality. When data were parametric the analysis was performed using Student t test; otherwise Mann Whitney U test was applied.

CYP3C1 = assay: zebrafish in vivo liver transcription, semi-quantitative RT-PCR: CYP3C1; details: zebrafish, 15 mg/kg intraperitoneally, single dose, 48 hr
Experimental: as §4, §5, §6

PXR = assay: zebrafish in vivo liver transcription, semi-quantitative RT-PCR: PXR; details: zebrafish, 15 mg/kg intraperitoneally, single dose, 48 hr
Experimental: as §4, §5, §6

[6] = system: ethoxyresorufin O-deethylase (EROD) activity (CYP1A-like activity); assay: EROD assay in zebrafish primary hepatocytes; details: zebrafish primary hepatocytes; DIM at concentrations of 2 μM and greater
Experimental: as §3

Compound | effect on 6β- and 12α-hydroxylation of testosterone [1] | effect on testosterone 6β-hydroxylation [2] | effect on EROD activity (EROD activity) | Effect on sea lamprey VDR (Sea lamprey VDR) | Effect on Xenopus laevis VDR (Xenopus laevis VDR) | Effect on zebrafish VDR (Zebrafish VDR) | other results
C[C@@H]1C[C@H]2[C@@H]3CCC4=CC(=O)C=C[C@]4(C)[C@@]3(F)[C@@H](O)C[C@]2(C)[C@@]1(O)C(=O)CO [Dexamethasone] | neither activity was substantially increased relative to vehicle control | None of these compounds produced significant increases in testosterone 6β-hydroxylation |  |  |  |  | 
C[C@@]12CCC[C@H]1[C@@H]1CC[C@H]3C[C@H](O)CC[C@]3(C)[C@H]1CC2 [androstanol, 5α-androstan-3α-ol] |  | None of these compounds produced significant increases in testosterone 6β-hydroxylation | did not alter EROD activity | No effect | No effect | No effect | EC50 ([3]; zebrafish): 20 ± 2.7 µM; maximal rate of testosterone 6β-hydroxylation ([3]; zebrafish primary hepatocytes, 48-hour exposure): 717 pmol/min/mg protein
CC(CCC(O)C(CO)COS(=O)(=O)O)C1CCC2C3C(O)CC4CC(O)CCC4(C)C3CC(O)C12C (stereo not drawn) [5β-scymnol 27-sulfate] |  |  |  | No effect | No effect | No effect | liver transcription of MDR1 (ABCB5) [4]: 1.50 ± 0.58 arbitrary units normalized to β-actin; liver transcription of β-actin (β-actin): 39.3 ± 17.5 arbitrary units; activity at recombinant zebrafish PXR (zebrafish PXR): weaker activator of recombinant zebrafish PXR; liver transcription of GAPDH [5]: 1.08 ± 0.50 arbitrary units normalized to β-actin; liver transcription of CYP3C1 (CYP3C1): 1.33 ± 0.58 arbitrary units normalized to β-actin; liver transcription of PXR (PXR): 0.75 ± 0.33 arbitrary units normalized to β-actin
C=C1/C(=C\C=C2/CCC[C@]3(C)[C@@H]([C@H](C)CCCC(C)(C)O)CC[C@@H]23)C[C@@H](O)C[C@@H]1O [1,25-(OH)2-Vitamin D3, 1α,25-(OH)2-vitamin D3] | neither activity was substantially increased relative to vehicle control | None of these compounds produced significant increases in testosterone 6β-hydroxylation | did not alter EROD activity |  |  |  | effect on 6β-hydroxylation of testosterone ([3]; zebrafish primary hepatocytes, calcitriol 1–500 nM): did not increase 6β-hydroxylation of testosterone; effect on EROD activity [6]: found not to affect EROD activity
CCOC(=O)c1cccc(N)c1 [3-aminoethylbenzoate] | neither activity was substantially increased relative to vehicle control |  |  |  |  |  | 
